Where two headings read alike, the source gives them in different places.
How the values were obtained:
[1] = log P by HPLC on reversed-phase column (C 18), EEC Directive 79/831 Annex V.A8; format: physicochemical; conditions: 55° C.; for LOGP_HCOOH: log P (HCOOH); for chromatographic logP: reversed-phase HPLC column (C 18)
Protocol: Temperature: 55° C. […] Called log P (HCOOH) in the table. […] Called log P (neutral) in the table.

Phaedon cochleariae = Phaedon cochleariae spray test; format: in vivo; conditions: after 7 days, Chinese cabbage leaf discs
Protocol: Phaedon cochleariae—Spray Test
(§1) Solvent: 78.0 parts by weight of acetone • • 1.5 parts by weight of dimethylformamide
(§2) Emulsifier: alkylaryl polyglycol ether
(§3) To produce a suitable active ingredient formulation, 1 part by weight of active ingredient is dissolved with the specified parts by weight of solvent and made up with water containing an emulsifier concentration of 1000 ppm until the desired concentration is attained. To produce further test concentrations, the formulation is diluted with emulsifier-containing water.
Discs of Chinese cabbage leaves (Brassica pekinensis) are sprayed with an active ingredient formulation of the desired concentration and, after drying, populated with larvae of the mustard beetle (Phaedon cochleariae).
After 7 days, the efficacy in % is determined. 100% means that all the beetle larvae have been killed; 0% means that no beetle larvae have been killed.

Spodoptera frugiperda = Spodoptera frugiperda spray test; format: in vivo; conditions: after 7 days, maize leaf discs; for pest or weed control at 100 g/ha / pest or weed control at 500 g/ha: Spodoptera frugiperda, foliar, 168 h, read-out: efficacy (caterpillars killed)
Protocol: Spodoptera frugiperda—Spray Test
as §1, §2, §3
Leaf discs of maize (Zea mays) are sprayed with an active ingredient formulation of the desired concentration and, after drying, populated with caterpillars of the armyworm (Spodoptera frugiperda).
After 7 days, the efficacy in % is determined. 100% means that all the caterpillars have been killed; 0% means that no caterpillar has been killed.

[2] = acidic range pH 2.7, 0.1% aqueous formic acid and acetonitrile, reversed-phase column (C 18)
[3] = log P, neutral range, HPLC on reversed-phase column (C 18)
[4] = acidic range at pH 2.7, 0.1% aqueous formic acid and acetonitrile, HPLC on reversed-phase column (C 18)
[5] = pH 2.7, LC-MS acidic range, pH 2.7, 0.1% formic acid/acetonitrile, read-out: log P (acidic) / log P (HCOOH)
[6] = pH 7.8, LC-MS neutral range, pH 7.8, ammonium hydrogencarbonate/acetonitrile, read-out: log P (neutral)
[7] = Phaedon cochleariae, foliar, 168 h, application rate 100 g/ha, read-out: efficacy (beetle larvae killed)
[8] = log P (neutral), HPLC reversed-phase column (C 18)

SMILES | LOGP_HCOOH [1, 2] | LOGP_NEUTRAL [1, 3] | LOGP_HCOOH [1, 4] | efficacy (beetle larvae killed) (Phaedon cochleariae; application rate 100 g/ha) | efficacy (beetle larvae killed) (Phaedon cochleariae; application rate 500 g/ha) | efficacy (caterpillars killed) (Spodoptera frugiperda; application rate 500 g/ha) | also measured
O=C(NCc1ccc(Cl)nc1)c1cc(-c2ccc(C(F)(F)F)cc2)cc(NC(=O)C2CC2)n1 [Example I-011] | 3.67 | 3.55 | – | 100% | 100% | 100% | –
CN(C(=O)C1CC1)c1cc(-c2ccc(OC(F)(F)F)cc2)cc(C(=O)NCc2ccc(C#N)cc2)n1 [Example I-215, N-(4-Cyanobenzyl)-6-[(cyclopropylcarbonyl)(methyl)amino]-4-[4-(trifluoromethoxy)phenyl]pyridine-2-carboxamide] | – | 3.84 | 3.85 | – | – | – | chromatographic logP [1, 5]: 3.85; chromatographic logP [1, 6]: 3.84; pest or weed control at 100 g/ha (Phaedon cochleariae; [7]): 100%; pest or weed control at 100 g/ha (Spodoptera frugiperda; application rate 100 g/ha): 100%; pest or weed control at 500 g/ha (Spodoptera frugiperda; application rate 500 g/ha): 83%
N#Cc1c(F)cc(CNC(=O)c2cc(-c3ccc(OC(F)(F)F)cc3)cc(NC(=O)C3CC3)n2)cc1F [Example I-111] | – | 4.02 | 4.18 | 100% | 100% | 100% | efficacy (caterpillars killed) (Spodoptera frugiperda; application rate 100 g/ha): 100%
N#CCCCONC(=O)c1cc(-c2ccc(OC(F)(F)F)cc2)cc(NC(=O)C2CC2)n1 [Example I-238] | 3.13 | – | – | – | 83% | – | –
O=C(NCc1ccc(C(F)(F)F)c(F)c1)c1cc(-c2ccc(C(F)(F)F)cc2)cc(NC(=O)C2CC2)n1 [Example I-064] | 4.68 | 4.53 | – | – | 100% | 100% | efficacy (caterpillars killed) (Spodoptera frugiperda; application rate 100 g/ha): 100%
CC(C)C(=O)Nc1cc(-c2ccc(C(F)(F)F)cc2)cc(C(=O)NC(C)c2ccc(C#N)cc2)n1 (stereo not shown) [Example I-087] | 4.20 | 4.15 | – | – | 83% | 100% | efficacy (caterpillars killed) (Spodoptera frugiperda; application rate 100 g/ha): 100%
N#Cc1ccc(CNC(=O)c2cc(-c3ccc(F)cc3)cc(NC(=O)C3CC3)n2)cc1 [Example I-002] | 3.24 | – | – | – | 100% | – | –
O=C(NOCC1CC1)c1cc(-c2ccc(OC(F)(F)F)cc2)cc(NC(=O)C2CC2)n1 [Example I-236] | 3.59 | – | – | – | 100% | – | LOGP_NEUTRAL [1, 8]: 3.50
N#Cc1ccc(CNC(=O)c2cc(-c3ccc(S(=O)(=O)C(F)(F)F)cc3)cc(NC(=O)C3CC3)n2)cn1 [Example I-097] | 3.24 | 3.11 | – | – | 100% | – | –
N#Cc1ccc(CNC(=O)c2cc(-c3ccc(C(F)F)c(F)c3)cc(NC(=O)C3CC3)n2)cc1 [Example I-222] | – | 3.34 | 3.39 | 100% | 100% | – | –
NS(=O)(=O)c1ccc(CNC(=O)c2cc(-c3ccc(OC(F)(F)F)cc3)cc(NC(=O)C3CC3)n2)cc1 [Example I-186] | – | 3.00 | 3.17 | – | 100% | – | –
N#Cc1ccc(CNC(=O)c2cc(-n3ccc(C(F)(F)C(F)(F)F)n3)cc(NC(=O)C3CC3)n2)cc1 [Example I-188, N-(4-Cyanobenzyl)-6-[(cyclopropylcarbonyl)amino]-4-[3-(pentafluoroethyl)-1H-pyrazol-1-yl]pyridine-2-carboxamide] | – | 3.57 | 3.70 | – | – | – | chromatographic logP [1, 5]: 3.7; chromatographic logP [1, 6]: 3.57; pest or weed control at 100 g/ha (Phaedon cochleariae; [7]): 100%; pest or weed control at 500 g/ha (Phaedon cochleariae; Phaedon cochleariae, foliar, 168 h, application rate 500 g/ha, read-out: efficacy (beetle larvae killed)): 100%
O=C(NCc1ccc([N+](=O)[O-])cc1)c1cc(-c2ccc(C(F)(F)C(F)(F)F)c(F)c2)cc(NC(=O)C2CC2)n1 [Example I-209] | – | 4.33 | 4.34 | 100% | – | – | –
COC(=O)N(Cc1ccc(C#N)cc1)C(=O)c1cc(-c2ccc(OC(F)(F)F)cc2)cc(NC(=O)C2CC2)n1 [Example I-231, Methyl (4-cyanobenzyl)({6-[(cyclopropylcarbonyl)amino]-4-[4-(trifluoromethoxy)phenyl]pyridin-2-yl}carbonyl)carbamate] | – | 4.43 | 4.41 | – | – | – | chromatographic logP [1, 5]: 4.41; chromatographic logP [1, 6]: 4.43; pest or weed control at 100 g/ha (Spodoptera frugiperda; application rate 100 g/ha): 100%; pest or weed control at 500 g/ha (Spodoptera frugiperda; application rate 500 g/ha): 100%
CONC(=O)c1cc(-c2ccc(OC(F)(F)F)cc2)cc(NC(=O)C2CC2)n1 [Example I-234] | 2.97 | – | – | – | 100% | – | LOGP_NEUTRAL [1, 8]: 2.89

More lines, main results first:

LOGP_HCOOH [1, 2] | LOGP_NEUTRAL [1, 3] | LOGP_HCOOH [1, 4] | SMILES | efficacy (beetle larvae killed) (Phaedon cochleariae; application rate 100 g/ha) | efficacy (beetle larvae killed) (Phaedon cochleariae; application rate 500 g/ha) | efficacy (caterpillars killed) (Spodoptera frugiperda; application rate 500 g/ha) | also measured
– | – | 4.33 | CC1(C(=O)Nc2cc(-c3ccc(OC(F)(F)F)cc3)cc(C(=O)NCc3ccc(C#N)cc3)n2)CC1 [Example I-147] | 100% | 100% | 100% | efficacy (caterpillars killed) (Spodoptera frugiperda; application rate 100 g/ha): 100%
– | 3.23 | 3.33 | Cn1ncc2cc(CNC(=O)c3cc(-c4ccc(OC(F)(F)F)cc4)cc(NC(=O)C4CC4)n3)cnc21 [Example I-114] | – | 100% | 100% | efficacy (caterpillars killed) (Spodoptera frugiperda; application rate 100 g/ha): 83%
4.00 | 3.87 | – | N#Cc1cc(F)c(CNC(=O)c2cc(-c3ccc(C(F)(F)F)cc3)cc(NC(=O)C3CC3)n2)c(F)c1 [Example I-068] | 100% | 100% | 100% | efficacy (caterpillars killed) (Spodoptera frugiperda; application rate 100 g/ha): 100%
4.15 | 4.02 | – | N#Cc1cc(F)c(CNC(=O)c2cc(-c3ccc(OC(F)(F)F)cc3)cc(NC(=O)C3CC3)n2)cc1F [Example I-086] | – | 100% | 83% | efficacy (caterpillars killed) (Spodoptera frugiperda; application rate 100 g/ha): 100%
3.98 | 3.85 | – | O=C(NCc1ccc([N+](=O)[O-])cc1)c1cc(-c2ccc(C(F)(F)F)cc2)cc(NC(=O)C2CC2)n1 [Example I-084] | – | 100% | – | –
4.16 | 4.05 | – | CC(C)C(=O)Nc1cc(-c2ccc(C(F)(F)F)cc2)cc(C(=O)NCc2c(F)cc(C#N)cc2F)n1 [Example I-069] | – | 83% | – | –
3.87 | 3.83 | – | N#Cc1ccc(CNC(=O)c2cc(-c3ccc(I)cc3)cc(NC(=O)C3CC3)n2)cc1 [Example I-050] | – | 83% | – | –
– | 3.46 | 3.55 | N#Cc1ccc(CNC(=O)c2cc(-c3ccc(SC(F)F)cc3)cc(NC(=O)C3CC3)n2)cc1 [Example I-180] | 100% | 100% | – | –
– | 3.88 | 4.04 | N#Cc1ccc(CNC(=O)c2cc(-c3ccc(OC(F)(F)F)cc3)cc(NC(=O)C3(C#N)CC3)n2)cc1 [Example I-210] | 83% | 83% | – | –
3.53 | 3.47 | – | O=C(NCc1ccc(Cl)nc1)c1cc(-c2ccc(Cl)cc2)cc(NC(=O)C2CC2)n1 [Example I-024] | – | 100% | – | –
4.17 | – | – | N#Cc1ccc(CNC(=O)c2cc(-c3ccc(C(F)(F)C(F)(F)F)c(F)c3F)cc(NC(=O)C3CC3)n2)cc1 [Example I-272] | – | 83% | – | –
– | 4.24 | 4.32 | N#Cc1ccc(CNC(=O)c2cc(-c3ccc(OC(F)(F)F)c(Cl)c3)cc(NC(=O)C3CC3)n2)cc1 [Example I-230] | 83% | – | – | –
– | – | 3.68 | COC(=O)C(C)NC(=O)c1cc(-c2ccc(OC(F)(F)F)cc2)cc(NC(=O)C2CC2)n1 (stereo not shown) [Example I-136] | – | – | 100% | –
– | 4.02 | 4.17 | CC(NC(=O)c1cc(-c2ccc(OC(F)(F)F)cc2)cc(NC(=O)C2CC2)n1)c1ccc(C#N)cc1 (single isomer, unassigned) [Example I-219] | – | – | 83% | –
4.22 | 4.05 | – | COc1ccc(CNC(=O)c2cc(-c3ccc(OC(F)(F)F)cc3)cc(NC(=O)C3CC3)n2)cc1 [Example I-083] | – | – | 100% | efficacy (caterpillars killed) (Spodoptera frugiperda; application rate 100 g/ha): 83%

From patent US20190053492A1, “SUBSTITUTED PYRIDINE COMPOUNDS AS PESTICIDES” (Bayer CropScience Aktiengesellschaft, priority 2016, published 2019)
